Data from patent publication US20200022964A1, “COMPOSITIONS AND METHODS FOR TREATMENT OF INFLAMMATORY AUTOIMMUNE DISEASES” (New York University, priority 2018, published 2020).
One block for each molecule: values may come before it.

How the values were obtained:
p38 or ERK1/2 = experiment: Western blot of TNF activated phosphorylation of p38 and ERK1/2 in BMDMs; format: cell-based, mice; details: TNF-α 10 ng/mL; FFD 10 μM
Procedure: (§1) Primary bone marrow derived macrophages (BMDMs) extraction. BMDMs were isolated from C57BL/6 and TNF-tg mice. After mice were sacrificed by cervical dislocation, the tibia and femur were isolated and both ends of the bones were cut to open the medullary cavity. Bone marrow cells were collected by centrifuge at 13000 g for 90 seconds and seeded in 6-well plates. Prior to their use in experiments, M-CSF (10 ng/ml, 576406, Biolegend) was added for 6 days to the BMDM culture medium.
Western blot. After protein samples were prepared, samples were separated by SDS-PAGE and transferred to a nitrocellulose (NC) membrane (162-0115, BIO-RAD) using a wet transfer system. Membrane was blocked in 5% (w/v) non-fat milk in TBST for half an hour at room temperature, followed by incubation with appropriate primary antibody overnight at 4° C. After washing, appropriate secondary antibody was added for 1 hour at room temperature. The bands on the membrane were developed by chemiluminescent (ECL) substrate and visualized by GelDoc system.

TNF-α and TNFR1 = TNF-α and TNFR1 (Homo sapiens, UniProt P19438); experiment: Solid phase binding of TNF-α to TNFR1
TNF-α and TNFR1, sequence (P19438 30-211 limits assumed, species assumed): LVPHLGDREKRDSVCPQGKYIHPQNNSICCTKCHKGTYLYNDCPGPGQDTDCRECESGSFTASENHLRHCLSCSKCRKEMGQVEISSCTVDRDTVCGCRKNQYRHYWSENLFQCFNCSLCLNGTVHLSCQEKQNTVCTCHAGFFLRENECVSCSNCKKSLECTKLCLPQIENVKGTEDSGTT
Procedure: Solid phase binding. […] Briefly, a 96-well ELISA plate was coated with 100 μL of 0.5 ng/μL TNFR1 at 4° C. overnight. The plate was washed with PBST 5 times, and 300 μL blocking buffer was added to each well followed by incubation at room temperature for 1 hour. After discarding the blocking buffer, 50 μL buffer containing drugs at concentrations ranging from 0.1 nM to 10^5 nM were added to the plate for 1 hour at room temperature. Three wells incubated with bovine serum albumin (BSA) served as negative controls and three wells containing TNF-α were set as positive controls. Without washing, 50 μL buffer containing 10 ng biotin-labeled TNF-α was added to each well and incubated at room temperature for 2 hours. The plate was washed and 100 μL buffer containing streptavidin-HPR was added and incubated at room temperature for 30 minutes. After a final wash, 100 μL TMB buffer was added to each well and the reaction was stopped when the positive control group turned blue. The plate was read by automatic plate reader at 450 nm.

TNF-α-induced genes = experiment: RNA-seq of TNF-α-treated BMDMs; format: cell-based, mice; details: TNF-α 10 ng/mL; FFD 10 μM, TFD 1 μM; 24 hours
Procedure: as §1
RNAseq and Transcription factors enrichment analysis. […] Total RNA was extracted by RNeasy Mini Kit (74106, Qiagen), and gene expression profiling analyzed by RNA-seq was performed by the NYU Genome Technology Center for RNA sequencing (Illumina HiSeq4000 Sequencing, HiSeq 4000 Single Read 50 Cycle Lane).

TNF-α = experiment: qRT-PCR of TNF-α-induced IL-1β, IL-6 and Nos-2 mRNA in BMDMs; format: cell-based, mice; details: TNF-α 10 ng/mL; FFD 1, 10 μM; TFD 0.1, 1 μM; 24 hours
Procedure: as §1
qRT-PCR. Total RNA was extracted by RNeasy plus mini kit (74106, QIAGEN) and cDNA was synthesized using SuperScript® Reverse Transcriptase (M314C, promega Corporation). SYBR® Green PCR Master Mix (4309155, Applied Biosystems) was used to perform quantitative real-time PCR (qRT-PCR) and the reaction was performed on a StepOnePlus™ real-time PCR Systems (Applied Biosystems). The mRNA expression level of target genes was calculated by ΔΔCT and fold changes of mRNA levels were normalized to GAPDH.

M1 and M2 macrophages = experiment: Macrophage polarization in vitro (BMDMs) and in vivo (spleen of TNF-α Tg mice); format: cell-based; details: in vitro BMDMs and spleen of treated TNF-α Tg mice
Procedure: Macrophage polarization. […] INFγ (25 ng/mL) and LPS (250 ng/mL) were added to BMDMs to induce M1 polarization while IL-4(20 ng/mL) was used to induce M2 polarization, with or without adding FFD (1 or 10 μM) or TFD (0.1 or 1μM), and cells were cultured for 24 hours. mRNA were extracted by RNA Mini kit (74106, QIAGEN).
Frozen splenic tissue specimens from TNFα Tg mice treated with or without TFD or FFD were stained and analyzed dual immunofluorescence. All sections were permeabilized with 0.1% NP40 in PBS, and then blocked in 5% donkey serum for 30 min at RT, followed by incubated with anti-IFNg (Th1), anti-IL-4 (Th2), anti-IL17 (Th17) and anti-foxp3 (Treg) diluted in 5% donkey serum at 4° C. overnight. On the second day, after washed 3 times in PBS, the sections were incubated with Cy2-conjugated donkey anti-rat IgG for 30 min at RT. After wash, the sections were furthered stained with FITC conjugated anti-CD4 for I hour at RT. To determine the macrophage polarization, sections were double stained with anti-CD68 and iNOS (M1) or CD206 (M2). DAPI were used to stain the nuclei. The fluorescence intensity of cells was quantified by Image J software.

[1] = system: TNF-α induced AA production; experiment: Arachidonic acid detection in BMDMs; format: cell-based, mice; details: TNF-α 10 ng/mL, 48 hours
From the text: Arachidonic acid detection. […] The result was detected at 450nm by automatic plate reader (SpectraMax i3x system, 5025027A, Molecular Devices). ATK was implemented as a positive control.

cPLA2 [2] = target: cPLA2 (Homo sapiens, UniProt P47712); details: 293 T cells transfected with Flag-tagged mutants; N-terminal C2D and CD1 deletion
Procedure: (§2) DARTS assay. Drug affinity responsive target stability (DARTS) assay was performed based on previously reported methods^4. In brief, cell lysate was extracted by M-PER™ Mammalian Protein Extraction Reagent (78501, Thermo Fisher), briefly centrifuged, and mixed with drugs or DMSO for 1 hour on a rotator. Pronase (P5147, Sigma-Aldrich) was added in the mixture for 15 minutes at room temperature. Digestion was stopped by 10 minute incubation with protease inhibitor cocktail on ice. Samples were boiled in SDS loading buffer for SDS-PAGE and Western blot.
(§3) Site-directed mutagenesis.
(§4) Construction of plasmids. The construction of cPLA2 mutant plasmids was based on serial C-terminal and N-terminal deletion of the amino acid sequences associated with functional structure. Each plasmid carried a flag tag. The constructions were: full length cPLA2 (1-750), cPLA2 (126-750), cPLA2 (406-750), cPLA2 (1-479), and cPLA2 (1-144).
Target sequence in this assay (P47712 126-749): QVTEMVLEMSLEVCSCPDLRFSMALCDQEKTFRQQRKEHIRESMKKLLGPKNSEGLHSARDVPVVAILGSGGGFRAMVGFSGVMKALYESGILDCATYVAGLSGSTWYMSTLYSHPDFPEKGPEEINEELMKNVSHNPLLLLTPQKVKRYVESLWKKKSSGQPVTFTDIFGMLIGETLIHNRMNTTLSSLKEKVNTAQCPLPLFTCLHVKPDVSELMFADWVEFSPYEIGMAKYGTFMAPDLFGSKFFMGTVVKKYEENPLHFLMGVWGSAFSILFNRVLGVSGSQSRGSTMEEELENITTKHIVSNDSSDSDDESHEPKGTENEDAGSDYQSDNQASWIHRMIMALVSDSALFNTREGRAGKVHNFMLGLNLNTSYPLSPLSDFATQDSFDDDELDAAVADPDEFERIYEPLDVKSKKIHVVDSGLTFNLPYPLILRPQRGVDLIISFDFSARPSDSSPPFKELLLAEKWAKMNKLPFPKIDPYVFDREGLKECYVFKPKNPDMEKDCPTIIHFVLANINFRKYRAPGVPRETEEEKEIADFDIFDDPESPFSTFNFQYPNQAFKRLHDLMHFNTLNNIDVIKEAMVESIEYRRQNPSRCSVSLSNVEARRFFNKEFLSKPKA

cPLA2 [3] = target: cPLA2 (Homo sapiens, UniProt P47712); details: 293 T cells transfected with Flag-tagged mutants
Procedure: as §2, §3, §4
Target sequence in this assay (P47712 1-479): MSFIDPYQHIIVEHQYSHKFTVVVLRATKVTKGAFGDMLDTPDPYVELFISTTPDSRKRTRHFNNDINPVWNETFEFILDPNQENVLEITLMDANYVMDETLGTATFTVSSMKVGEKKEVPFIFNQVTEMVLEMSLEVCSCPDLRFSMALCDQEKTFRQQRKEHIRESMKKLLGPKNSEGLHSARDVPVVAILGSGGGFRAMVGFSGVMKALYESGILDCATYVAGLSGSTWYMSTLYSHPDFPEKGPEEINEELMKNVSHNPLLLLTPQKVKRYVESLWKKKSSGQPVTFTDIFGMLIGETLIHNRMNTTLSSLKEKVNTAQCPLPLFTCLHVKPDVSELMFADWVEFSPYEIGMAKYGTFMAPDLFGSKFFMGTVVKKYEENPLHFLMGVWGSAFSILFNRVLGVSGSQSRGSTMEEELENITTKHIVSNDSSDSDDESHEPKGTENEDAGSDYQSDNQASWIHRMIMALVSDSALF

IκB-α = experiment: Phosphorylation of IκB-α in vivo (data not shown)
DBA/1J mice = experiment: Collagen induced arthritis model in DBA/1J mice; details: for loss of cartilage (Safranin O staining of ankle) / serum levels of IL-1β and IL-6 / arthritis clinical scores and incidence / onset of disease: prevention; for arthritis clinical scores and incidence / onset of disease: oral daily from 18 days after immunization, FFD 10 mg/kg, TFD 50 mg/kg; for disease scores: therapeutic, treatment initiated at clinical score of ˜5 points, FFD 0.4, 2, 10 mg/kg, TFD 2, 10, 50 mg/kg oral, 24 days

binding of TNF-α to TNFR1 in vitro (TNF-α and TNFR1): did not affect
DARTS protective effects on cPLA2 (126-750) and cPLA2(406-750) (cPLA2 [2]): retained protective effects
DARTS protective effects on mutants lacking the CD2 domain, cPLA2 (1-479) and cPLA2 (1-144) (cPLA2 [3]): did not show any protective effects
SMILES: CC(C)(C(=O)O)c1ccc(C(O)CCCN2CCC(C(O)(c3ccccc3)c3ccccc3)CC2)cc1 (centres unmarked) [fexofenadine]
phosphorylation of p38 or ERK1/2 (p38 or ERK1/2): did not affect
expression of TNF-α-induced genes (RNA-seq) (TNF-α-induced genes): clearly downregulated
TNF-α-induced mRNA expressions of IL-1β, IL-6 and Nos-2 (TNF-α): dose-dependently inhibited
anti-inflammatory M2 macrophages (M1 and M2 macrophages): markedly increased
inflammatory M1 macrophages (M1 and M2 macrophages): significantly inhibited
TNF-α induced AA production [1]: inhibited
phosphorylation of NF-κB p65 upstream mediator IκB-α in vivo (IκB-α): inhibited
loss of cartilage (Safranin O staining of ankle) (DBA/1J mice): prevented the loss of cartilage
serum levels of IL-1β and IL-6 (DBA/1J mice): significantly reduced
arthritis clinical scores and incidence (DBA/1J mice): significantly decrease
onset of disease (DBA/1J mice): delay the onset
disease scores (DBA/1J mice): dose-dependently ameliorated

binding of TNF-α to TNFR1 in vitro (TNF-α and TNFR1): did not affect
SMILES: CC(C)(C)c1ccc(C(O)CCCN2CCC(C(O)(c3ccccc3)c3ccccc3)CC2)cc1 (centres unmarked) [terfenadine]
expression of TNF-α-induced genes (RNA-seq) (TNF-α-induced genes): clearly downregulated
TNF-α-induced mRNA expressions of IL-1β, IL-6 and Nos-2 (TNF-α): dose-dependently inhibited
anti-inflammatory M2 macrophages (M1 and M2 macrophages): markedly increased
inflammatory M1 macrophages (M1 and M2 macrophages): significantly inhibited
TNF-α induced AA production [1]: inhibited
loss of cartilage (Safranin O staining of ankle) (DBA/1J mice): prevented the loss of cartilage
serum levels of IL-1β and IL-6 (DBA/1J mice): significantly reduced
arthritis clinical scores and incidence (DBA/1J mice): significantly decrease
onset of disease (DBA/1J mice): delay the onset
disease scores (DBA/1J mice): dose-dependently ameliorated
